Measured values reported in patent US20130345215A1, “PYRAZOLOPYRIMIDONE AND PYRAZOLOPYRIDONE INHIBITORS OF TANKYRASE” (Genentech, Inc., priority 2012, published 2013).
Like-named read-outs stand apart in the source and are kept apart here.

Experiments:
[1] = target: T1, Tankyrase 1 (TNKS1) (Homo sapiens, UniProt O95271); test: μHTS-TNKS-IWR2 TR-FRET Binding Assay (Example 118), His6-TNKS1
T1 construct: His6-TNKS1, MW=28.2 KDa (construct: 1088-1327, 1266M)
Protocol: (§1) μHTS-TNKS-IWR2 TR-FRET Binding Assay (10 μL/well in BD1536-well plate, a single point)
(§2) Reagents and Stock Solutions
(§3) Biotin-4-((1S,2R,6S,7R)-3,5-Dioxo-4-aza-tricyclo[5.2.1.0*2,6]dec-8-en-4-yl)-N-(4-methyl-quinolin-8-yl)-benzamide (Biotin-IWR2): 10 mM Biotin-IWR2 stock in DMSO, stored at −20° C.
(XAV939) in DMSO, stored at −20° C.
(§4) Assay buffer 1a (AB1a) for TNKS dilution: 50 mM Tris, pH 7.4, 100 mM sodium chloride solution, 1 mM magnesium chloride solution, 1 mM DL-dithiothreitol solution, 0.2 mg/mL bovine serum albumin solution, 0.025% NP-40.
(§5) Assay buffer 1b (AB1b) for Biotin-IWR2 dilution: 50 mM Tris, pH 7.4, 100 mM sodium chloride solution, 1 mM magnesium chloride solution, 1 mM DL-dithiothreitol solution, 0.2 mg/mL bovine serum albumin solution, 0.05% NP-40
(§6) Assay buffer 1c (AB1c) for compound dilution: 50 mM Tris, pH 7.4, 100 mM sodium chloride solution, 1 mM magnesium chloride solution, 1 mM DL-dithiothreitol solution, 0.2 mg/mL bovine serum albumin solution
(§7) Assay buffer 2 (AB2) for Eu/APC: 50 mM Tris, pH 7.4, 100 mM sodium chloride solution, 1 mM magnesium chloride solution, 0.2 mg/mL bovine serum albumin solution
(§8) Reagent Stock Solution Preparation
(§9) Prepare BLANK well stock solution: 5% DMSO/AB1b buffer
(§10) Prepare TNKS 1 stock solution (5× stock): 300 nM TNKS in AB1a buffer. (Alternatively, use TNKS2 or PARP1 stock solutions.)
Transfer 3 μL/well of above solution (solution 1,2,3) to an empty assay plate (BD1536-well plate) as follows: • TOTAL and cpd wells: Solution 1 (Biotin-IWR2): • BLANK wells: Solution 2 (No Biotin-IWR2): • POSITIVE CONTROL wells: Solution 3 (Biotin-IWR2+XAV939)
(§11) Transfer 3 μL/well of the above diluted compound solutions or compound dilution buffer to the above assay plate. Add 2 μL/well of 300 nM TNKS stock solution (4) to every well in the above assay plate. Centrifuge the assay plate at 2100 rpm for 2 min. Incubate the assay plate at 26° C. for 30 minutes. Add 2 μL/well 3.5 nMEu/50 nM APC solution (5) to every well in the above assay plate. Centrifuge the assay plate at 2100 rpm for 2 min. Incubate the assay plate at 26° C. for 60 min.

[2] = target: T2, tankyrase 2 (TNKS2) (Homo sapiens, UniProt Q9H2K2); test: μHTS-TNKS-IWR2 TR-FRET Binding Assay (Example 118), His6-TNKS2 substituted; conditions: procedure in Example 118 with His6-TNKS2
T2 construct: His6-tankyrase 2 (construct: 934-1166) (His6-TNKS2)
Protocol: as §1, §2
Tankyrase 1 (TNKS1): 184.3 μM=5.2 mg/mL His6-TNKS1, MW=28.2 KDa (construct: 1088-1327, 1266M) in 20 mM Tris pH 8, 150 mM NaCl, 10% glycerol, and 0.5 mM TCEP. Alternatively, His6-tankyrase 2 (construct: 934-1166) (His6-TNKS2) or His6-PARP1 (full length) can be substituted for His6-TNKS 1.
as §3
Positive control: 10 mM 2-(4-Trifluoromethyl-phenyl)-3,5,7,8-tetrahydro-thiopyrano[4,3-d]pyrimidin-4-one (XAV939) in DMSO, stored at −20° C.
APC-anti-His Ab: 8.50 μM SL-APC, 8.26 μM anti-6His antibody-SureLight APC (Columia Bioscience, Catalog Number D3-1711, Lot Number N01010-AAH04)
Assay plate: BD 1536-well, clear/black plate (Catalog Number 353255)
as §4, §5, §6, §7, §8
Prepare Biotinylated IWR2 stock solution (3.33× stock) for TOTL and compound wells: 200 nM Biotin-IWR2 in 5% DMSO/AB1b buffer
as §9
Prepare POSITIVE CONTROL well stock solution (3.33× stock): 200 nM XAV939 in 200 nM Biotin-IWR2/5% DMSO/AB1b buffer
as §10
Prepare Eu/APC stock solution (5× stock): 3.5 nM Eu-SA/50 nM APC-His6Ab in AB2 buffer.
Add 25 μL/well 1.5% DMSO/AB1c buffer in each compound well to the compound concentration at 74 μM in 8.8% DMSO/AB1c buffer or in the 2 μL DMSO CONTROL wells (BLANK, TOTAL and POSITIVE wells) in the compound plate. Transfer 3 μL/well of above solution (solution 1,2,3) to an empty assay plate (BD1536-well plate) as follows: • TOTAL and cpd wells: Solution 1 (Biotin-IWR2): • BLANK wells: Solution 2 (No Biotin-IWR2): • POSITIVE CONTROL wells: Solution 3 (Biotin-IWR2+XAV939)
as §11, with “60 min. Read the assay plate immediately at excitation wavelength of 330 nm and emission wavelength of […] in time resolved fluorescence mode.” for “60 min.”
XAV939 (+ve control): 60 nM at ˜70% Inhibition
General Library compounds: 22.23 μM in 4% DMSO

T2 sequence (Q9H2K2 934-1166): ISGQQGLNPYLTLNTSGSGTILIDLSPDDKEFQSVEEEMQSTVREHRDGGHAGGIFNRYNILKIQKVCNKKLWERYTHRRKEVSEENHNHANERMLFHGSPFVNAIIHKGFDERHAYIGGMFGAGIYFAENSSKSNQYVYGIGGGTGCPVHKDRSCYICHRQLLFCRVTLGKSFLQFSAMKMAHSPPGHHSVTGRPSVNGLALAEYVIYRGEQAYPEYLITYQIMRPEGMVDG
T1 sequence (O95271 1088-1327): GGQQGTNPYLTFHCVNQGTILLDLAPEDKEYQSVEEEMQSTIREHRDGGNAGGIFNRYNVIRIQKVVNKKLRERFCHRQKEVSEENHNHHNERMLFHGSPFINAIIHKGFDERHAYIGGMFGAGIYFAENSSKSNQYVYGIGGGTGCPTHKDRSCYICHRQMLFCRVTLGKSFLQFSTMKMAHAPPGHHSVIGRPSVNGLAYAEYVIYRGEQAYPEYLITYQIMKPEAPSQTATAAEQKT

IC50 [1] [nM] | IC50 [2] [nM] | Compound | IC50 ([1]; Compounds I-1 to I-58, procedure in Example 118 (TR-FRET, Biotin-IWR2 60 nM, TNKS 60 nM), read-out: TNKS1 (IC50)) [nM]
55 | 81.5 | Cn1ncc2c(=O)[nH]c(N3CCN(c4ccc(S(C)(=O)=O)cc4F)CC3)nc21 [Compound I-21, 6-[4-(2-fluoro-4-methylsulfonyl-phenyl)piperazin-1-yl]-1-methyl-5H-pyrazolo[3 4-d]pyrimidin-4-one] | 
26 | 24.6 | Cn1ncc2c(=O)[nH]c(N3CCN(c4ccc(-c5nnn[nH]5)cc4F)CC3)nc21 [Compound I-31, 6-[4-[2-fluoro-4-(1H-tetrazol-5-yl)phenyl]piperazin-1-yl]-1-methyl-5H-pyrazolo[3 4-d]pyrimidin-4-one] | 
61 | 93.9 | Cn1ncc2c(=O)[nH]c(N3CCN(c4ccnc(Cl)c4Cl)CC3)nc21 [Compound I-46, 6-[4-(2 3-dichloro-4-pyridyl)piperazin-1-yl]-1-methyl-5H-pyrazolo[3 4-d]pyrimidin-4-one] | 
27 | 32.6 | Cn1ncc2c(=O)[nH]c(N3CCN(c4ccccc4C(F)(F)F)CC3)nc21 [Compound I-19, 1-methyl-6-[4-[2-(trifluoromethyl)phenyl]piperazin-1-yl]-5H-pyrazolo[3 4-d]pyrimidin-4-one] | 
29 | 28.9 | Cn1ncc2c(=O)[nH]c(N3CCN(c4c(Cl)cncc4Cl)CC3)nc21 [Compound I-34, 6-[4-(3 5-dichloro-4-pyridyl)piperazin-1-yl]-1-methyl-5H-pyrazolo[3 4-d]pyrimidin-4-one] | 
74 | 95.2 | Cn1ncc2c(=O)[nH]c(N3CCN(c4ccccc4C#N)CC3)nc21 [Compound I-15, 2-[4-(1-methyl-4-oxo-5H-pyrazolo[3 4-d]pyrimidin-6-yl)piperazin-1-yl]benzonitrile] | 
57 | 66.8 | Cn1ncc2c(=O)[nH]c(N3CCC(O)(c4ccccc4)CC3)nc21 [Compound I-23, 6-(4-hydroxy-4-phenyl-1-piperidyl)-1-methyl-5H-pyrazolo[3 4-d]pyrimidin-4-one] | 
114 | 147 | COCCOc1cc(F)cc(N2CCN(c3nc4c(cnn4C)c(=O)[nH]3)CC2)c1 [Compound I-55, 6-[4-[3-fluoro-5-(2-methoxyethoxy)phenyl]piperazin-1-yl]-1-methyl-5H-pyrazolo[3 4-d]pyrimidin-4-one] | 
44 | 55 | Cn1ncc2c(=O)[nH]c(N3CCN(c4ccc(F)cc4S(C)(=O)=O)CC3)nc21 [Compound I-22, 6-[4-(4-fluoro-2-methylsulfonyl-phenyl)piperazin-1-yl]-1-methyl-5H-pyrazolo[3 4-d]pyrimidin-4-one] | 

The remaining lines, values behind:

Compound | IC50 [1] [nM] | IC50 [2] [nM] | IC50 ([1]; Compounds I-1 to I-58, procedure in Example 118 (TR-FRET, Biotin-IWR2 60 nM, TNKS 60 nM), read-out: TNKS1 (IC50)) [nM]
Cn1ncc2c(=O)[nH]c(N3CCN(C4CCS(=O)(=O)C4)CC3)nc21 (centres unmarked) [Compound I-36, 6-[4-(1 1-dioxothiolan-3-yl)piperazin-1-yl]-1-methyl-5H-pyrazolo[3 4-d]pyrimidin-4-one] | 1930 | 1600 | 
Cn1ncc2c(=O)[nH]c(N3CCC(C#N)(c4ccc(F)cc4)CC3)nc21 [Compound I-33, 4-(4-fluorophenyl)-1-(1-methyl-4-oxo-5H-pyrazolo[3 4-d]pyrimidin-6-yl)piperidine-4-carbonitrile] | 32 | 21.7 | 
Cn1ncc2c(=O)[nH]c(N3CCC(c4ccc(F)cc4)CC3)nc21 [Compound I-5, 6-[4-(4-fluorophenyl)-1-piperidyl]-1-methyl-5H-pyrazolo[3 4-d]pyrimidin-4-one] | 31 | 37.6 | 
Cn1ncc2c(=O)[nH]c(-c3ccc(C(F)(F)F)cc3)cc21 [Compound I-13, 1-methyl-6-[4-(trifluoromethyl)phenyl]-5H-pyrazolo[4 3-c]pyridin-4-one] | 32 | 32.5 | 
Cn1ncc2c(=O)[nH]c(N3CCC(O)(c4ccccn4)CC3)nc21 [Compound I-35, 6-[4-hydroxy-4-(2-pyridyl)-1-piperidyl)-1-methyl-5H-pyrazolo[3 4-d]pyrimidin-1-one] | 69 | 94.5 | 
6-[4-(2- fluorophenyl)piperazin-1- yl]-1-methyl-5H- pyrazolo[4 3-c]pyridin-4- one [Compound I-7] |  | 41.2 | 46
Cn1ncc2c(=O)[nH]c(-c3ccc(C(F)(F)F)nc3)nc21 [Compound I-27, 1-methyl-6-[6-(trifluoromethyl)-3-pyridyl)-5H-pyrazolo[3 4-d]pyrimidin-4-one] | 385 | 428 | 
Cn1ncc2c(=O)[nH]c(N3CCC(C#N)(c4ccccc4)CC3)nc21 [Compound I-24, 1-(1-methyl-4-oxo-5H-pyrazolo[3 4-d]pyrimidin-6-yl)-4-phenyl-piperidine-4-carbonitrile] | 27 | 33.3 | 
Cn1ncc2c(=O)[nH]c(N3CCN(C4CCCC4)CC3)nc21 [Compound I-37, 6-(4-cyclopentylpiperazin-1-yl)-1-methyl-5H-pyrazolo[3 4-d]pyrimidin-4-one] | 165 | 178 | 
Cn1ncc2c(=O)[nH]c(-c3ccc(C(F)(F)F)cn3)nc21 [Compound I-50, 1-methyl-6-[5-(trifluoromethyl)-2-pyridyl]-5H-pyrazolo[3 4-d]pyrimidin-4-one] | 286 | 325 | 
Cn1ncc2c(=O)[nH]c(N3CCN(c4ccc(F)cc4F)CC3)cc21 [Compound I-16, 6-[4-(2 4-difluorophenyl)piperazin-1-yl]-1-methyl-5H-pyrazolo[4 3-c]pyridin-4-one] | 48 | 47.4 | 
COCCOc1cc(F)c(N2CCN(c3nc4c(cnn4C)c(=O)[nH]3)CC2)c(F)c1 [Compound I-1, 6-[4-[2 6-difluoro-4-(2-methoxyethoxy)phenyl]piperazin-1-yl]-1-methyl-5H-pyrazolo[3 4-d]pyrimidin-4-one] | 7.6 | 24.4 | 
Cn1ncc2c(=O)[nH]c(N3CCN(c4c(F)cccc4F)CC3)cc21 [Compound I-51, 6-[4-(2 6-difluorophenyl)piperazin-1-yl]-1-methyl-5H-pyrazolo[4 3-c]pyridin-4-one] | 25 | 23.1 | 
